Reference: patent US5780604A, “11,12-cyclic phosphite or phosphate derivatives of erythromycin and related macrolides” (Abbott Laboratories, priority 1997, dated 1998)
Values after ≈ are worked out from the molar mass of the structure shown.

Columns and labels:
[1] = tested on: Gram-negative bacteria; conditions: background statement; cited from earlier work
[2] = tested on: gram-positive bacteria, mycoplasmas; conditions: background statement, U.S. Pat. No. 4,331,803; cited from earlier work
[3] = background statement; cited from earlier work
[4] = tested on: Haemophilis Influenzae DILL AMP R; type: cell-based; conditions: BHI agar, 35°-37° C., 20 to 24 hours; unit assumed
Method: (§1) Representative compounds of the present invention were assayed in vitro for antibacterial activity as follows: Twelve petri dishes containing successive aqueous dilutions of the test compound mixed with 10 mL of sterilized Brain Heart Infusion (BHI) agar (Difco 0418-01-5) were prepared. Each plate was inoculated with 1:100 (or 1:10 for slow-growing strains, such as Micrococcus and Streptococcus) dilutions of up to 32 different microorganisms, using a Steers replicator block. […] In addition, a control plate, using BHI agar containing no test compound, was prepared and incubated at the beginning and end of each test.
(§2) An additional plate containing a compound having known susceptibility patterns for the organisms being tested and belonging to the same antibiotic class as the test compound was also prepared and incubated as a further control, as well as to provide test-to-test comparability.
(§3) After incubation, each plate was visually inspected. The minimum inhibitory concentration (MIC) was defined as the lowest concentration of drug yielding no growth, a slight haze, or sparsely isolated colonies on the inoculum spot as compared to the growth control.

[5] = tested on: Escherichia coli JUHL; test: In vitro antibacterial activity (MIC), agar dilution; type: cell-based; conditions: unit assumed
Method: as §1, §2, §3

[6] = tested on: Enterococcus faecium ATCC 8043; type: cell-based; conditions: BHI agar, 35°-37° C., 20 to 24 hours; unit assumed
Method: as §1, §2, §3

[7] = tested on: Micrococcus luteus ATCC 4698; type: cell-based; conditions: BHI agar, 35°-37° C., 20 to 24 hours; unit assumed
Method: as §1, §2, §3

[8] = tested on: Micrococcus luteus ATCC 9341; type: cell-based; conditions: BHI agar, 35°-37° C., 20 to 24 hours; unit assumed
Method: as §1, §2, §3

[9] = tested on: Staphylococcus aureus A5177; type: cell-based; conditions: BHI agar, 35°-37° C., 20 to 24 hours; unit assumed
Method: as §1, §2, §3

[10] = tested on: Staphylococcus aureus ATCC 6538P; type: cell-based; conditions: BHI agar, 35°-37° C., 20 to 24 hours; unit assumed
Method: as §1, §2, §3

[11] = tested on: Staphylococcus aureus CMX 553; type: cell-based; conditions: BHI agar, 35°-37° C., 20 to 24 hours; unit assumed
Method: as §1, §2, §3

[12] = tested on: Staphylococcus aureus CMX 642A; type: cell-based; conditions: BHI agar, 35°-37° C., 20 to 24 hours; unit assumed
Method: as §1, §2, §3

[13] = tested on: Staphylococcus aureus NCTC10649M; type: cell-based; conditions: BHI agar, 35°-37° C., 20 to 24 hours; unit assumed
Method: as §1, §2, §3

[14] = tested on: Staphylococcus epidermidis 3519; type: cell-based; conditions: BHI agar, 35°-37° C., 20 to 24 hours; unit assumed
Method: as §1, §2, §3

[15] = tested on: Streptococcus agalactiae CMX 508; type: cell-based; conditions: BHI agar, 35°-37° C., 20 to 24 hours; unit assumed
Method: as §1, §2, §3

[16] = tested on: Streptococcus bovis A-5169; type: cell-based; conditions: BHI agar, 35°-37° C., 20 to 24 hours; unit assumed
Method: as §1, §2, §3

[17] = tested on: Streptococcus pyogenes EES61; type: cell-based; conditions: BHI agar, 35°-37° C., 20 to 24 hours; unit assumed
Method: as §1, §2, §3

[18] = tested on: Streptococcus pyogenes PIU 2548; type: cell-based; conditions: BHI agar, 35°-37° C., 20 to 24 hours; unit assumed
Method: as §1, §2, §3

[19] = tested on: Candida albicans CCH 442; test: In vitro antibacterial activity (MIC), agar dilution; type: cell-based; conditions: BHI agar, 35°-37° C., 20 to 24 hours; unit assumed
Method: as §1, §2, §3

[20] = tested on: Escherichia coli DC-2; test: as above; type: cell-based; conditions: BHI agar, 35°-37° C., 20 to 24 hours; unit assumed
Method: as §1, §2, §3

[21] = tested on: Escherichia coli SS; test: as above; type: cell-based; conditions: BHI agar, 35°-37° C., 20 to 24 hours; unit assumed
Method: as §1, §2, §3

[22] = tested on: Mycobacterium smegmatis ATCC 114; test: as above; type: cell-based; conditions: BHI agar, 35°-37° C., 20 to 24 hours; unit assumed
Method: as §1, §2, §3

[23] = tested on: Nocardia Asteroides ATCC9970; test: as above; type: cell-based; conditions: BHI agar, 35°-37° C., 20 to 24 hours; unit assumed
Method: as §1, §2, §3

[24] = tested on: Staphylococcus aureus 1775; test: as above; type: cell-based; conditions: BHI agar, 35°-37° C., 20 to 24 hours; unit assumed
Method: as §1, §2, §3

[25] = tested on: Staphylococcus aureus A-5278; test: as above; type: cell-based; conditions: BHI agar, 35°-37° C., 20 to 24 hours; unit assumed
Method: as §1, §2, §3

[26] = tested on: Streptococcus Pheumoniae 5649; test: as above; type: cell-based; conditions: BHI agar, 35°-37° C., 20 to 24 hours; unit assumed
Method: as §1, §2, §3

[27] = tested on: Streptococcus Pheumoniae GYR 1171; test: as above; type: cell-based; conditions: BHI agar, 35°-37° C., 20 to 24 hours; unit assumed
Method: as §1, §2, §3

[28] = tested on: Streptococcus pyogenes 930; test: as above; type: cell-based; conditions: BHI agar, 35°-37° C., 20 to 24 hours; unit assumed
Method: as §1, §2, §3

[29] = BHI agar, 35°-37° C., 20 to 24 hours

Row | SMILES | activity against Gram-negative bacteria [1] | MIC [4] [µg/mL] | MIC [6] [µg/mL] | MIC [7] [µg/mL] | MIC [8] [µg/mL] | MIC [9] [µg/mL] | MIC [10] [µg/mL] | MIC [11] [µg/mL] | MIC [12] [µg/mL] | MIC [13] [µg/mL] | MIC [14] [µg/mL] | MIC [15] [µg/mL] | MIC [16] [µg/mL] | MIC [17] [µg/mL] | MIC [18] [µg/mL] | MIC [19] [µg/mL] | MIC [20] [µg/mL] | MIC [5, 29] [µg/mL] | MIC [21] [µg/mL] | MIC [22] [µg/mL] | further results
1 | CC[C@H]1OC(=O)[C@H](C)[C@@H](O[C@H]2C[C@@](C)(OC)[C@@H](O)[C@H](C)O2)[C@H](C)[C@@H](O[C@@H]2O[C@H](C)C[C@H](N(C)C)[C@H]2O)[C@](C)(OC)C[C@@H](C)C(=O)[C@H](C)[C@@H](O)[C@]1(C)O [6-O-methyl erythromycin A] | only weak antimicrobial activity | – | – | – | – | – | – | – | – | – | – | – | – | – | – | – | – | – | – | – | antibacterial activity against many gram-positive bacteria, mycoplasmas, etc. [2]: desirable antibacterial activity; acid stability [3]: poor acid stability
2 | CC[C@H]1OC(=O)[C@H](C)[C@@H](O[C@H]2C[C@@](C)(OC)[C@@H](O)[C@H](C)O2)[C@H](C)[C@@H](O[C@@H]2O[C@H](C)C[C@H](N(C)C)[C@H]2O)[C@](C)(O)C[C@@H](C)C(=O)[C@H](C)[C@@H](O)[C@]1(C)O [Ery. A, Erythromycin A] | only weak activity | 4 (≈ 5.45 µM) | – | – | – | – | – | – | – | – | – | – | – | – | – | – | – | – | – | – | MIC [5]: > 100 µg/mL
3 | CC[C@H]1OC(=O)[C@H](C)C(=O)[C@H](C)[C@@H](O[C@@H]2O[C@H](C)C[C@H](N(C)C)[C@H]2O)[C@](C)(OC)C[C@@H](C)C(=O)[C@H](C)[C@H]2OP(OC)O[C@@]21C (some centres unmarked) [Example 3] | – | > 128 | 25 (≈ 38.6 µM) | 25 (≈ 38.6 µM) | 25 (≈ 38.6 µM) | 25 (≈ 38.6 µM) | 25 (≈ 38.6 µM) | 50 (≈ 77.2 µM) | 25 (≈ 38.6 µM) | 25 (≈ 38.6 µM) | 25 (≈ 38.6 µM) | 12.5 (≈ 19.3 µM) | 12.5 (≈ 19.3 µM) | 12.5 (≈ 19.3 µM) | 12.5 (≈ 19.3 µM) | > 100 | > 100 | > 100 | 50 (≈ 77.2 µM) | 100 (≈ 154 µM) | MIC [23]: 12.5 µg/mL (≈ 19.3 µM); MIC [24]: > 100 µg/mL; MIC [25]: > 100 µg/mL; MIC [26]: 16 µg/mL (≈ 24.7 µM); MIC [27]: 8 µg/mL (≈ 12.4 µM); MIC [28]: > 100 µg/mL
4 | CCOP1O[C@@H]2[C@@H](C)C(=O)[C@H](C)C[C@@](C)(OC)[C@H](O[C@@H]3O[C@H](C)C[C@H](N(C)C)[C@H]3O)[C@@H](C)C(=O)[C@@H](C)C(=O)O[C@H](CC)[C@@]2(C)O1 (some centres unmarked) [Example 5] | – | > 128 | 25 (≈ 37.8 µM) | 50 (≈ 75.6 µM) | 25 (≈ 37.8 µM) | 25 (≈ 37.8 µM) | 25 (≈ 37.8 µM) | 50 (≈ 75.6 µM) | 50 (≈ 75.6 µM) | 25 (≈ 37.8 µM) | 25 (≈ 37.8 µM) | 12.5 (≈ 18.9 µM) | 12.5 (≈ 18.9 µM) | 12.5 (≈ 18.9 µM) | 12.5 (≈ 18.9 µM) | > 100 | > 100 | > 100 | 50 (≈ 75.6 µM) | 100 (≈ 151 µM) | MIC [23]: 12.5 µg/mL (≈ 18.9 µM); MIC [24]: > 100 µg/mL; MIC [25]: > 100 µg/mL; MIC [26]: 16 µg/mL (≈ 24.2 µM); MIC [27]: 4 µg/mL (≈ 6.04 µM); MIC [28]: > 100 µg/mL
